Test results published in the NIST ThermoML archive (doi:10.1016/j.jct.2006.04.005).
Numbers after ± are expanded uncertainties.

Details: 303.15 K, 101 kPa, Liquid; for viscosity: Capillary tube (Ostwald / Ubbelohde) method; for mass density: Pycnometric method

SMILES	viscosity [mPa·s]	mass density [kg/m3]	speed of sound [m/s]
Cc1ccccc1[N+](=O)[O-] [2-nitrotoluene]	1.911 ± 0.049	1153.24 ± 7.4	
Cc1cccc(Cl)c1 [3-chlorotoluene]	0.78 ± 0.02	1065.21 ± 6.4	1280 ± 8
Cc1cccc([N+](=O)[O-])c1 [3-nitrotoluene]	1.777 ± 0.046	1147.67 ± 7.4	
Cc1ccc(Cl)cc1 [4-chlorotoluene]	0.9 ± 0.023	1060.54 ± 6.3	1271 ± 8
C[S+](C)[O-] [dimethyl sulfoxide]	1.803 ± 0.046	1091.35 ± 6.7	1470 ± 9
